Experimental data reported in publication PMC7138139 (Molecular and cellular neurosciences, 2020).

How the values were obtained:
Olfr937 = target: T1, Olfr937 (Mus musculus, UniProt Q9EQB4); experiment: Glosensor cAMP luminescence dose-response, Hana3A cells; type: cell-based; conditions: antagonist of whiskey lactone response; 316 uM
T1 sequence (Q9EQB4 1-311): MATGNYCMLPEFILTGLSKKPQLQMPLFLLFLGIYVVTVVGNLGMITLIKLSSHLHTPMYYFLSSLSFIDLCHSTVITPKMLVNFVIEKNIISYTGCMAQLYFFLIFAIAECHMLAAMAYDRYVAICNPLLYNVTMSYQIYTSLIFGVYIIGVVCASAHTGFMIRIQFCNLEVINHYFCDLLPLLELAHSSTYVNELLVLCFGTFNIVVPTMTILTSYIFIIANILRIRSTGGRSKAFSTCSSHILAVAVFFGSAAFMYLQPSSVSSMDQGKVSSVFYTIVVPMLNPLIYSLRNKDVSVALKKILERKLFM

Olfr774 = target: T2, Olfr774 (Mus musculus, UniProt Q7TRI5); experiment: as above; type: cell-based; conditions: agonist
T2 sequence (Q7TRI5 1-312): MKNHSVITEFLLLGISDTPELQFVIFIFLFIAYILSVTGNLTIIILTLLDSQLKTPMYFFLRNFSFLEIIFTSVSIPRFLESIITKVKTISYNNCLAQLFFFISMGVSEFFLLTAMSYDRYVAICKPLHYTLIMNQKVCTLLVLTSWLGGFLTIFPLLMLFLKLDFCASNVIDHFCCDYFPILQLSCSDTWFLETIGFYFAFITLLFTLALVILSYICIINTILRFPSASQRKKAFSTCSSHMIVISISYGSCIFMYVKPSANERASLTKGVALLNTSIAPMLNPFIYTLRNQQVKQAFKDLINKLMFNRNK

SMILES | Glosensor cAMP luminescence dose-response, Hana3A cells (Olfr937) | Glosensor cAMP luminescence dose-response, Hana3A cells (Olfr774)
CC(C)(C)c1ccc(CCC=O)cc1 [bourgeonal, 3-(4-tert-butylphenyl)propanal] | bourgeonal and lyral also suppressed Olfr937 responses to whiskey lactone, with bourgeonal being more effective | –
CCCCCCCCCCC=O [undecanal] | – | In vitro testing confirmed that Olfr774 responded to undecanal but not to bourgeonal
